Blank lines part the entries; values can stand above or below the compound they belong to.
Legend:
Conditions in all cases: stereoisomer not certain
[1] = HILIC, Waters XBridge BEH Amide, 100 × 2.1 mm, 2.5 µm, 0.5 mL/min, estimated dead time 0.44 min; A: water + 0.1% acetic acid + 10 mM ammonium acetate, pH 4; B: 5% water + 95% acetonitrile + 0.1% acetic acid + 10 mM ammonium acetate, pH 4; gradient (min/%B) 0/95 5/95 20/57 25/57 30/95 40/95
[2] = RP, Waters CORTECS T3, 100 × 2.1 mm, 2.7 µm, 0.15 mL/min, estimated dead time 1.5 min; A: water + 0.1% formic acid, pH 3; B: methanol + 0.1% formic acid, pH 3; gradient (min/%B) 0/5 5/5 25/95 25.1/100 35/100 35.1/5 45/5
[3] = RP, Waters ACQUITY UPLC BEH C18, 100 × 2.1 mm, 1.7 µm, 0.2 mL/min, estimated dead time 1.1 min; A: water + 0.025% formic acid + 20 mM ammonium acetate + 0.055% ammonium hydroxide, pH 7; B: methanol; gradient (min/%B) 0/5 5/5 25/100 30/100 30.1/5 35/5
[4] = RP, Waters CORTECS T3, 100 × 2.1 mm, 2.7 µm, 0.25 mL/min, estimated dead time 0.88 min; A: water + 0.1% formic acid, pH 3; B: methanol + 0.1% formic acid, pH 3; gradient (min/%B) 0/5 5/5 25/95 25.1/100 35/100 35.1/5 45/5
[5] = RP, Waters CORTECS T3, 100 × 2.1 mm, 2.7 µm, 0.3 mL/min, estimated dead time 0.73 min; A: water + 0.1% formic acid, pH 3; B: methanol + 0.1% formic acid, pH 3; gradient (min/%B) 0/0 1/0 6/5 30/100 35/100 35.1/0 40/0
[6] = RP, Waters CORTECS T3, 100 × 2.1 mm, 2.7 µm, 0.2 mL/min, estimated dead time 1.1 min; A: water + 0.1% formic acid, pH 3; B: methanol + 0.1% formic acid, pH 3; gradient (min/%B) 0/5 5/5 25/95 25.1/100 35/100 35.1/5 45/5
[7] = RP, Waters CORTECS T3, 100 × 2.1 mm, 2.7 µm, 0.2 mL/min, estimated dead time 1.1 min; A: water + 0.1% formic acid, pH 3; B: methanol + 0.1% formic acid, pH 3; gradient (min/%B) 0/0 1/0 6/5 30/100 35/100 35.1/0 40/0
[8] = RP, Waters ACQUITY UPLC BEH C18, 100 × 2.1 mm, 1.7 µm, 0.2 mL/min, estimated dead time 1.1 min; A: water + 0.1% formic acid, pH 3; B: methanol + 0.1% formic acid, pH 3; gradient (min/%B) 0/5 5/5 25/100 30/100 30.1/5 35/5
[9] = RP, Waters CORTECS T3, 100 × 2.1 mm, 2.7 µm, 0.3 mL/min, estimated dead time 0.73 min; A: water + 0.1% formic acid, pH 3; B: methanol + 0.1% formic acid, pH 3; gradient (min/%B) 0/0 5/0 25/100 30/100 30.1/0 35/0
[10] = HILIC, Merck SeQuant ZIC-HILIC, 150 × 2.1 mm, 5 µm, 0.75 mL/min, estimated dead time 0.44 min; A: water + 0.1% acetic acid + 10 mM ammonium acetate, pH 4; B: 5% water + 95% acetonitrile + 0.1% acetic acid + 10 mM ammonium acetate, pH 4; gradient (min/%B) 0/95 5/95 20/57 25/57 30/95 40/95
[11] = HILIC, Merck SeQuant ZIC-HILIC, 150 × 2.1 mm, 5 µm, 0.75 mL/min, estimated dead time 0.44 min; A: water + 10 mM ammonium formate, pH 6; B: 5% water + 95% acetonitrile + 10 mM ammonium formate, pH 6; gradient (min/%B) 0/95 5/95 20/57 25/57 30/95 40/95
[12] = RP, Waters CORTECS T3, 100 × 2.1 mm, 2.7 µm, 0.2 mL/min, estimated dead time 1.1 min; A: water + 0.1% formic acid, pH 3; B: methanol + 0.1% formic acid, pH 3; gradient (min/%B) 0/0 1/0 6/5 30/100 35/100 35.1/0 40/0; remark: listed apart in the source
[13] = RP, Waters ACQUITY UPLC BEH C18, 100 × 2.1 mm, 1.7 µm, 0.1 mL/min, estimated dead time 2.2 min; A: water + 0.1% formic acid, pH 3; B: methanol + 0.1% formic acid, pH 3; gradient (min/%B) 0/5 5/5 25/95 25.1/100 35/100 35.1/5 45/5
[14] = RP, Waters CORTECS T3, 100 × 2.1 mm, 2.7 µm, 0.3 mL/min, estimated dead time 0.73 min; A: water + 0.1% formic acid, pH 3; B: methanol + 0.1% formic acid, pH 3; gradient (min/%B) 0/5 5/5 25/95 25.1/100 35/100 35.1/5 45/5
[15] = RP, Waters CORTECS T3, 100 × 2.1 mm, 2.7 µm, 0.3 mL/min, estimated dead time 0.73 min; A: water + 0.1% formic acid, pH 3; B: methanol + 0.1% formic acid, pH 3; gradient (min/%B) 0/0 5/0 25/100 30/100 30.1/0 35/0; remark: listed apart in the source
[16] = RP, Waters CORTECS T3, 100 × 2.1 mm, 2.7 µm, 0.3 mL/min, estimated dead time 0.73 min; A: water + 0.1% formic acid, pH 3; B: methanol + 0.1% formic acid, pH 3; gradient (min/%B) 0/0 1/0 6/5 30/100 35/100 35.1/0 40/0; remark: listed apart in the source
[17] = RP, Waters ACQUITY UPLC BEH C18, 100 × 2.1 mm, 1.7 µm, 0.1 mL/min, estimated dead time 2.2 min; A: water + 0.1% formic acid, pH 3; B: methanol + 0.1% formic acid, pH 3; gradient (min/%B) 0/5 5/5 25/100 30/100 30.1/5 35/5
[18] = RP, Waters CORTECS T3, 100 × 2.1 mm, 2.7 µm, 0.25 mL/min, estimated dead time 0.88 min; A: water + 0.1% formic acid, pH 3; B: methanol + 0.1% formic acid, pH 3; gradient (min/%B) 0/0 1/0 6/5 30/100 35/100 35.1/0 40/0
[19] = RP, Waters CORTECS T3, 100 × 2.1 mm, 2.7 µm, 0.3 mL/min, estimated dead time 0.73 min; A: water + 0.1% formic acid, pH 3; B: methanol + 0.1% formic acid, pH 3; gradient (min/%B) 0/5 5/5 25/100 30/100 30.1/5 35/5
[20] = RP, Waters CORTECS T3, 100 × 2.1 mm, 2.7 µm, 0.15 mL/min, estimated dead time 1.5 min; A: water + 0.1% formic acid, pH 3; B: methanol + 0.1% formic acid, pH 3; gradient (min/%B) 0/0 1/0 6/5 30/100 35/100 35.1/0 40/0
[21] = RP, Waters CORTECS T3, 100 × 2.1 mm, 2.7 µm, 0.1 mL/min, estimated dead time 2.2 min; A: water + 0.1% formic acid, pH 3; B: methanol + 0.1% formic acid, pH 3; gradient (min/%B) 0/5 5/5 25/95 25.1/100 35/100 35.1/5 45/5
[22] = RP, Waters CORTECS T3, 100 × 2.1 mm, 2.7 µm, 0.1 mL/min, estimated dead time 2.2 min; A: water + 0.1% formic acid, pH 3; B: methanol + 0.1% formic acid, pH 3; gradient (min/%B) 0/0 1/0 6/5 30/100 35/100 35.1/0 40/0

SMILES: O=C(O)CCCCCCCCCCCO [OMEGA-HYDROXYDODECANOIC ACID]
LC retention time [1]: 1.1 min
LC retention time [2]: 22.2 min
LC retention time [3]: 16.3 min
LC retention time [4]: 20.4 min
LC retention time [5]: 22.4 min

SMILES: CCOC(OCC)C(O)COP(=O)(O)O (stereo unspecified) [GLYCERALDEHYDE 3-PHOSPHATE DIETHYL ACETAL]
LC retention time [6]: 12.2 min
LC retention time [2]: 7.38 min
LC retention time [7]: 8.23 min
LC retention time [3]: 1.41 min
LC retention time [5]: 6.25 min

SMILES: Nc1ccn(C2OC(COP(=O)(O)OP(=O)(O)O)C(O)C2O)c(=O)n1 (stereo unspecified) [CYTIDINE 5'-DIPHOSPHATE]
LC retention time [2]: 1.98 min
LC retention time [7]: 1.35 min
LC retention time [9]: 0.89 min

SMILES: O=c1ccn(C2OC(CO)C(O)C2O)c(=O)[nH]1 (stereo unspecified) [URIDINE]
LC retention time [1]: 3.95 min
LC retention time [2]: 1.83 min
LC retention time [10]: 4.54 min

SMILES: Nc1ccn(C2CC(O)C(COP(=O)(O)O)O2)c(=O)n1 (stereo unspecified) [2'-DEOXYCYTIDINE 5'-MONOPHOSPHATE]
LC retention time [6]: 2.67 min
LC retention time [13]: 2.67 min
LC retention time [8]: 1.38 min
LC retention time [11]: 14.5 min
LC retention time [7]: 1.35 min
LC retention time [9]: 0.89 min
LC retention time [5]: 0.92 min

Continued, values first:

LC retention time [6]: 29.8 min
LC retention time [2]: 24.7 min
LC retention time [8]: 22.9 min
LC retention time [3]: 19.6 min
LC retention time [4]: 22.9 min
LC retention time [9]: 21.9 min
LC retention time [5]: 25.4 min
SMILES: CC(CCC(=O)O)C1CCC2C3C(O)CC4CC(O)CCC4(C)C3CC(O)C12C (stereo unspecified) [CHOLATE]

LC retention time [6]: 2.78 min
LC retention time [1]: 13.5 min
LC retention time [2]: 1.83 min
LC retention time [10]: 13.5 min
LC retention time [8]: 1.84 min
LC retention time [11]: 14 min
LC retention time [7]: 1.42 min
LC retention time [3]: 1.36 min
LC retention time [4]: 1.13 min
LC retention time [9]: 0.97 min
LC retention time [5]: 0.96 min
SMILES: CC(=O)N[C@@H](CC(=O)O)C(=O)O [N-ACETYL-L-ASPARTIC ACID]

LC retention time [12]: 1.38 min
LC retention time [6]: 2.75 min
LC retention time [2]: 1.78 min
LC retention time [13]: 2.7 min
LC retention time [8]: 1.38 min
LC retention time [14]: 0.9 min
LC retention time [15]: 0.93 min
LC retention time [7]: 1.42 min
LC retention time [16]: 0.92 min
LC retention time [17]: 2.74 min
LC retention time [18]: 1.13 min
LC retention time [19]: 0.93 min
LC retention time [20]: 1.87 min
SMILES: N[C@@H](Cc1ccc(O)c(O)c1)C(=O)O [3,4-DIHYDROXY-L-PHENYLALANINE]

LC retention time [6]: 6.38 min
LC retention time [2]: 3.28 min
LC retention time [10]: 12.2 min
LC retention time [13]: 5.3 min
LC retention time [8]: 2.7 min
LC retention time [11]: 12.8 min
LC retention time [7]: 3.28 min
LC retention time [4]: 1.99 min
LC retention time [9]: 2.32 min
LC retention time [5]: 2.32 min
SMILES: CC(O)(CC(=O)O)C(=O)O (stereo unspecified) [CITRAMALATE]

LC retention time [6]: 19.1 min
LC retention time [1]: 2.26 min
LC retention time [2]: 15.1 min
LC retention time [10]: 3.23 min
LC retention time [13]: 17.2 min
LC retention time [8]: 14.3 min
LC retention time [11]: 2.09 min
LC retention time [7]: 15.6 min
LC retention time [16]: 14.1 min
LC retention time [18]: 14.8 min
LC retention time [3]: 1.78 min
LC retention time [19]: 12.3 min
LC retention time [20]: 16.9 min
LC retention time [21]: 17.2 min
SMILES: COc1cc(C=CC(=O)O)ccc1O [FERULATE]

LC retention time [12]: 13.2 min
LC retention time [6]: 15.9 min
LC retention time [2]: 12.6 min
LC retention time [10]: 14.4 min
LC retention time [8]: 11.2 min
LC retention time [14]: 10.7 min
LC retention time [15]: 11.3 min
LC retention time [22]: 11.7 min
LC retention time [11]: 14.9 min
LC retention time [7]: 13.2 min
LC retention time [16]: 12.2 min
LC retention time [17]: 13.8 min
LC retention time [18]: 12.6 min
LC retention time [3]: 1.36 min
LC retention time [19]: 10.5 min
LC retention time [4]: 11.1 min
LC retention time [9]: 11.4 min
LC retention time [5]: 12.2 min
SMILES: Nc1nc2ncc(CNc3ccc(C(=O)NC(CCC(=O)O)C(=O)O)cc3)nc2c(=O)[nH]1 (stereo unspecified) [FOLIC ACID]

LC retention time [6]: 14.3 min
LC retention time [1]: 8.06 min
LC retention time [2]: 10.4 min
LC retention time [13]: 13.3 min
LC retention time [8]: 9.48 min
LC retention time [7]: 10.6 min
LC retention time [3]: 2.97 min
LC retention time [4]: 7.94 min
LC retention time [9]: 9.23 min
LC retention time [5]: 8.96 min
SMILES: CSCCC(NC(C)=O)C(=O)O (racemic) [N-ACETYL-DL-METHIONINE]

— the RepoRT retention time repository (doi:10.1016/j.jchromb.2020.122105)
